Test results: patent US11667645B2, “Granzyme B directed imaging and therapy” (CytoSite Biopharma Inc., priority 2018, dated 2023)
Like-named read-outs stand apart in the source and are kept apart here.

Assays:
[1] = metabolic stability assay using liver microsomes; format: in vitro ADME; conditions: human liver microsomes, with NRS at 37° C.
Procedure: In addition, compounds of Formula I-VIII described above are also tested in the metabolic stability assay using liver microsomes, as provided below.
Buffer pH7.4: Prepare 1 (M) KH2PO4 and 1 (M) K2HPO4. Titrate 1(M) K2HPO4 with 1 (M) KH2PO4 to obtain pH 7.40. Dilute this buffer 10 fold in Water (30 ml buffer+270 ml of water) to obtain 100 mM phosphate buffer. Adjust pH to 7.40±0.02 using 5(N) HCl or 5(N) NaOH.
NADPH Regeneration System (NRS): Prepare a solution containing 13 mM NADP, 33 mM Glucose-6-phosphate, 33 mM MgCl2 and 4 U/ml Glucose-6-phosphate dehydrogenase in buffer.
Liver Microsome (LM) suspension: Thaw LM vial on ice, then mix 1.0 ml LM (20 mg/ml) with 19 ml buffer [final LM Conc: 1 mg/ml]
LM+NRS suspension: Mix 5.0 ml NRS with 20 ml LM suspension [final LM Conc: 0.8 mg/ml]
System suitability standard: a synthesized compound having Mol wt 686.2 used as System suitability standard. Dissolve this compound in ice-cold acetonitrile to obtain concentration of 0.1 μg/ml and store at 4° C.
Compound Stock: 10 mM in DMSO
Sub stock (100 μM): 4 μl of 10 mM Compound Stock+[…] Acetonitrile
Working plate (2 μM): 10 μl of 100 μM Sub stock+490 μl buffer
Incubate all plastic materials including tips at 37° C. overnight.
Incubate LM suspension and NRS at 37° C. for 15 min before use.
Add 40 μl buffer to the wells of blank plate.
Add 40 μl compound (from working plate) to 0, 5, 10, 20, 30 and 60 min plates.
Initiate reaction by adding 40 μl of LM+NRS suspension in each plate.
Terminate reaction by adding 240 μl ice-cold acetonitrile containing system suitability standard at designated time points. For T=0 add 240 μl ice-cold acetonitrile containing system suitability standard before LM+NRS addition.
Centrifuge (3500 rpm, 20 min and 15° C.) the plates.
Mix 110 μl supernatant with 110 μl water and quantitate amount of Compound in the solution using LC-MS/MS.
For Scaled CLint & Predicted CL use the relevant physiological parameters, as applicable.
Human LM: Corning, Cat #25117
Mouse LM: Xenotech, Cat #M1000
(2) Volumes mentioned in the protocol are representative values and may change depending on number of test compounds.
(3) It is assumed that the compounds are chemically stable in the assay system/buffer.
The metabolic stability assay described above can be performed using different test concentrations, LM Concentrations, or time points.
Certain compounds of this disclosure were tested in the microsomal stability assay provided above.

[2] = target: Granzyme B (human lymphocytes) (Homo sapiens (Human), UniProt P10144); assay: human Granzyme B biochemical assay
How it was run: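 Fluorogenic Ac-IETD-AFC cleavage (Ex 400/Em 505 nm) read after 60 min at 22 °C, following 30 min, 22 °C enzyme–compound pre-incubation. Working stocks: enzyme 10 nM in 0.1% BSA buffer, substrate 800 µM, compound 8 points, 3.16-fold from 40 µM. Controls set 0% (DMSO) and 100% (standard inhibitor) inhibition; IC50 fitted.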

[3] = Granzyme B IC50 as repeated in Table 7, read-out: IC50
[4] = Granzyme B (human lymphocytes) 5 nM, substrate Ac-IETD-AFC 200 μM, Cpd incubation with enzyme 30 mins, 22° C., read time 60 mins, read-out: IC50
[5] = Granzyme B IC50 as repeated in Table 7

Sequence of Granzyme B (human lymphocytes) (P10144 21-247): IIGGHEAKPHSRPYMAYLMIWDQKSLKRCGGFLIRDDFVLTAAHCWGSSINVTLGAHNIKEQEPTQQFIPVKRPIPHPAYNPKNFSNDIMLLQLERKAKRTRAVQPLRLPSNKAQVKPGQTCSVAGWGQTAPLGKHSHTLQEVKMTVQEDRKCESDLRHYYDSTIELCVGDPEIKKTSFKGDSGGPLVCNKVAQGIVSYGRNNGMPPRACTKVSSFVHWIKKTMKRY

Row | Structure (SMILES) | HLM % remaining @ 30 min [1] | IC50 [2, 3] [nM] | IC50 [2, 4] [nM] | biological potency of separated isomer (in words) ([2]; isomers separated by prep HPLC or column chromatography) | IC50 [2] [nM] | IC50 [2, 5] [nM]
1 | CC(C)[C@H](NC(=O)Cc1csc2ccccc12)C(=O)N[C@H]1CCc2cccc3c2N(C1=O)[C@H](C(=O)NCc1c[nH]nn1)C3 [Compound C003, (2S,5S)-5-[(S)-2-(2-Benzo[b]thiophen-3-yl-acetylamino)-3-methyl-butyrylamino]-4-oxo-1,2,4,5,6,7-hexahydro-azepino[3,2,1-hi]indole-2-carboxylic acid (1H-[1,2,3]triazol-4-ylmethyl)-amide] | * (“*” indicates a remaining percentage of 0-30%) | 1 to 300 | – | – | – | –
2 | CC[C@H](C)[C@H](NC(=O)Cc1csc2ccccc12)C(=O)N[C@H]1CCc2cccc3c2N(C1=O)[C@H](C(=O)NCc1c[nH]nn1)C3 [Compound C006, (2S,5S)-5-[(2S,3S)-2-(2-Benzo[b]thiophen-3-yl-acetylamino)-3-methyl-pentanoylamino]-4-oxo-1,2,4,5,6,7-hexahydro-azepino[3,2,1hi]indole-2-carboxylic acid (1H-[1,2,3]triazol-4-ylmethyl)-amide] | * (“*” indicates a remaining percentage of 0-30%) | 1 to 300 | 1 to 300 | biologically potent | – | –
3 | CC(=O)N[C@H](C(=O)N[C@H]1CCc2cccc3c2N(C1=O)[C@H](C(=O)NCc1c[nH]nn1)C3)C(C)C [Compound C025, (2S,5S)-5-((S)-2-Acetylamino-3-methyl-butyrylamino)-4-oxo-1,2,4,5,6,7-hexahydro-azepino[3,2,1-hi]indole-2-carboxylic acid (1H-[1,2,3]triazol-4-ylmethyl)-amide] | *** (the symbol “***” indicates a remaining percentage of 71-100%) | 1 to 300 | 1 to 300 | – | – | –
4 | CC[C@H](C)[C@H](NC(C)=O)C(=O)N[C@H]1CCc2cccc3c2N(C1=O)[C@H](C(=O)NCc1c[nH]nn1)C3 [Compound C028, (2S,5S)-5-((2S,3S)-2-Acetylamino-3-methyl-pentanoylamino)-4-oxo-1,2,4,5,6,7-hexahydro-azepino[3,2,1-hi]indole-2-carboxylic acid (1H-[1,2,3]triazol-4-ylmethyl)-amide] | *** (the symbol “***” indicates a remaining percentage of 71-100%) | 1 to 300 | 1 to 300 | – | – | –
5 | CC(C)[C@H](NC(=O)c1ccccc1)C(=O)N[C@H]1CCc2cccc3c2N(C1=O)[C@H](C(=O)NCc1c[nH]nn1)C3 [Compound C036, (2S,5S)-5-((S)-2-Benzoylamino-3-methyl-butyrylamino)-4-oxo-1,2,4,5,6,7-hexahydro-azepino[3,2,1-hi]indole-2-carboxylic acid (1H-[1,2,3]triazol-4-ylmethyl)-amide] | *** (the symbol “***” indicates a remaining percentage of 71-100%) | 1 to 300 | 1 to 300 | – | – | –
6 | CC[C@H](C)[C@H](NC(=O)c1ccccc1)C(=O)N[C@H]1CCc2cccc3c2N(C1=O)[C@H](C(=O)NCc1c[nH]nn1)C3 [Compound C039, (2S,5S)-5-((2S,3S)-2-Benzoylamino-3-methyl-pentanoylamino)-4-oxo-1,2,4,5,6,7-hexahydro-azepino[3,2,1-hi]indole-2-carboxylic acid (1H-[1,2,3]triazol-4-ylmethyl)-amide] | ** (“**” indicates a remaining percentage of 31-70%) | 1 to 300 | 1 to 300 | – | – | –
7 | CC[C@@H](C)[C@H](NC(=O)c1ccccc1)C(=O)N[C@H]1CCc2cccc3c2N(C1=O)[C@H](C(=O)NCc1c[nH]nn1)C3 [Compound C053, (2S,5S)-5-((2S,3R)-2-Benzoylamino-3-methyl-pentanoylamino)-4-oxo-1,2,4,5,6,7-hexahydro-azepino[3,2,1-hi]indole-2-carboxylic acid (1H-[1,2,3]triazol-4-ylmethyl)-amide] | ** (“**” indicates a remaining percentage of 31-70%) | 1 to 300 | 1 to 300 | – | – | –
8 | CC[C@@H](C)[C@H](NC(=O)Cc1csc2ccccc12)C(=O)N[C@H]1CCc2cccc3c2N(C1=O)[C@H](C(=O)NCc1c[nH]nn1)C3 [Compound C054, (2S,5S)-5-[(2S,3R)-2-(2-Benzo[b]thiophen-3-yl-acetylamino)-3-methyl-pentanoylamino]-4-oxo-1,2,4,5,6,7-hexahydro-azepino[3,2,1-hi]indole-2-carboxylic acid (1H-[1,2,3]triazol-4-ylmethyl)-amide] | * (“*” indicates a remaining percentage of 0-30%) | 1 to 300 | 1 to 300 | – | – | –
9 | CC(C)[C@H](NC(=O)COCCF)C(=O)N[C@H]1CCc2cccc3c2N(C1=O)[C@H](C(=O)NCc1c[nH]nn1)C3 [Compound C056, (2S,5S)-5-{(S)-2-[2-(2-Fluoro-ethoxy)-acetylamino]-3-methyl-butyrylamino}-4-oxo-1,2,4,5,6,7-hexahydro-azepino[3,2,1-hi]indole-2-carboxylic acid (1H-[1,2,3]triazol-4-ylmethyl)-amide] | *** (the symbol “***” indicates a remaining percentage of 71-100%) | 1 to 300 | 1 to 300 | – | – | –
10 | CC(C)[C@H](NC(=O)CF)C(=O)N[C@H]1CCc2cccc3c2N(C1=O)[C@H](C(=O)NCc1c[nH]nn1)C3 [Compound C057, (2S,5S)-5-[(S)-2-(2-Fluoro-acetylamino)-3-methyl-butyrylamino]-4-oxo-1,2,4,5,6,7-hexahydro-azepino[3,2,1-hi]indole-2-carboxylic acid (1H-[1,2,3]triazol-4-ylmethyl)-amide] | *** (the symbol “***” indicates a remaining percentage of 71-100%) | – | – | – | 1 to 300 | 1 to 300
11 | CC[C@H](C)[C@H](NC(=O)COCCF)C(=O)N[C@H]1CCc2cccc3c2N(C1=O)[C@H](C(=O)NCc1c[nH]nn1)C3 [Compound C058, (2S,5S)-5-{(2S,3S)-2-[2-(2-Fluoro-ethoxy)-acetylamino]-3-methyl-pentanoylamino}-4-oxo-1,2,4,5,6,7-hexahydro-azepino[3,2,1-hi]indole-2-carboxylic acid (1H-[1,2,3]-triazol-4-ylmethyl)-amide] | *** (the symbol “***” indicates a remaining percentage of 71-100%) | 1 to 300 | 1 to 300 | – | – | –
12 | CC[C@H](C)[C@H](NC(=O)CF)C(=O)N[C@H]1CCc2cccc3c2N(C1=O)[C@H](C(=O)NCc1c[nH]nn1)C3 [Compound C059, (2S,5S)-5-[(2S,3S)-2-(2-Fluoro-acetylamino)-3-methyl-pentanoylamino]-4-oxo-1,2,4,5,6,7-hexahydro-azepino[3,2,1-hi]indole-2-carboxylic acid (1H-[1,2,3]triazol-4-ylmethyl)-amide] | *** (the symbol “***” indicates a remaining percentage of 71-100%) | – | – | – | 1 to 300 | 1 to 300
13 | CC[C@H](C)[C@H](NC(=O)c1ccccc1)C(=O)N[C@H]1COc2cccc3c2N(C1=O)[C@H](C(=O)NCc1c[nH]nn1)C3 [Compound C096, (1S,8S)-8-((2S,3S)-2-Benzoylamino-3-methyl-pentanoylamino)-9-oxo-1,2,8,9-tetrahydro-7H-6-oxa-9a-aza-benzo[cd]azulene-1-carboxylic acid (1H-[1,2,3]triazol-4-ylmethyl)-amide] | ** (“**” indicates a remaining percentage of 31-70%) | 1 to 300 | 1 to 300 | – | – | –
14 | CC[C@H](C)[C@H](NC(C)=O)C(=O)N[C@H]1COc2cccc3c2N(C1=O)[C@H](C(=O)NCc1c[nH]nn1)C3 [Compound C097, (1S,8S)-8-((2S,3S)-2-Acetylamino-3-methyl-pentanoylamino)-9-oxo-1,2,8,9-tetrahydro-7H-6-oxa-9a-aza-benzo[cd]azulene-1-carboxylic acid (1H-[1,2,3]triazol-4-ylmethyl)-amide] | *** (the symbol “***” indicates a remaining percentage of 71-100%) | 1 to 300 | 1 to 300 | – | – | –
